Data on two compounds can be found in article PMC4580410, “Characterization of Kbot21 Reveals Novel Side Chain Interactions of Scorpion Toxins Inhibiting Voltage-Gated Potassium Channels” (PLoS ONE, 2015).

The subject of one data set is rKV2.1. The data set can be described thus: Two-electrode voltage-clamp, Xenopus oocytes expressing rKV2.1. Format: cell-based, rat. Conditions: 1 μM toxin, TEVC, n ≥ 3. The protocol: (§1) For the expression of the VGPCs (rKV1.1, rKV1.2, hKV1.3, rKV1.4, rKV1.6, Shaker IR, rKV2.1) in Xenopus oocytes, the linearized plasmids were transcribed using the T7 or SP6 mMESSAGE-mMACHINE transcription kit (Ambion, USA). The harvesting of stage V-VI oocytes from anaesthetized female Xenopus laevis frog was previously described. Oocytes were injected with 50 nl of cRNA at a concentration of 1 ng/nl using a micro-injector (Drummond Scientific, USA). The oocytes were incubated in ND96 solution containing (in mM): NaCl, 96; KCl, 2; CaCl2, 1.8; MgCl2, 2 and HEPES, 5 (pH 7.4), supplemented with 50 mg/l gentamycin sulfate. The use of the frogs was in accordance with the license number LA1210239.
(§2) Two-electrode voltage-clamp recordings were performed at room temperature (18–22°C) using a Geneclamp 500 amplifier (Molecular Devices, USA) controlled by a pClamp data acquisition system (Axon Instruments, USA). Whole cell currents from oocytes were recorded 1–4 days after injection. Bath solution composition was ND96 (in mM): NaCl, 96; KCl, 2; CaCl2, 1.8; MgCl2, 2 and HEPES, 5 (pH 7.4). Voltage and current electrodes were filled with 3 M KCl. Resistances of both electrodes were kept between 0.7–1.5 MΩ. The elicited currents were filtered at 1 kHz and sampled at 500 Hz using a four-pole low-pass Bessel filter. Leak subtraction was performed using a-P/4 protocol. […]
Background: In two-electrode clamp one electrode senses voltage and the other passes current.

The next data set relates to rKV1.1. Description: Two-electrode voltage-clamp, Xenopus oocytes expressing rKV1.1. Format: cell-based, rat. As to conditions: 1 μM toxin, TEVC, n ≥ 3. How it is done: as §1, §2
The next data set relates to rKV1.2. The data set can be described thus: Two-electrode voltage-clamp, Xenopus oocytes expressing rKV1.2. The class given is cell-based, rat. As to conditions: 1 μM toxin, TEVC, n ≥ 3. The protocol:
as §1, §2

For another data set, the system named is Shaker IR. The data set can be described thus: Two-electrode voltage-clamp, Xenopus oocytes expressing Shaker IR. Format: cell-based, insect. Conditions: 1 μM toxin, TEVC, n ≥ 3. How it is done:
as §1, §2

In another data set the test system is hKV1.3. Description: Two-electrode voltage-clamp, Xenopus oocytes expressing hKV1.3. The class given is cell-based, human. Conditions: 1 μM toxin, TEVC, n ≥ 3. The protocol:
as §1, §2

The next data set has as its system rKV1.4. Description: Two-electrode voltage-clamp, Xenopus oocytes expressing rKV1.4. The class given is cell-based, rat. As to conditions: 1 μM toxin, TEVC, n ≥ 3. The protocol:
as §1, §2

The next data set has as its target T1, rKV1.6 (Rattus norvegicus, UniProt P17659).
T1 construct: expressed in transfected cells; host or cells: Xenopus laevis oocytes injected with cRNA
The data set can be described thus: Two-electrode voltage-clamp, Xenopus oocytes expressing rKV1.6. The class given is cell-based. How it is done:
as §1
Two-electrode voltage-clamp recordings were performed at room temperature (18–22°C) using a Geneclamp 500 amplifier (Molecular Devices, USA) controlled by a pClamp data acquisition system (Axon Instruments, USA). Whole cell currents from oocytes were recorded 1–4 days after injection. Bath solution composition was ND96 (in mM): NaCl, 96; KCl, 2; CaCl2, 1.8; MgCl2, 2 and HEPES, 5 (pH 7.4). Voltage and current electrodes were filled with 3 M KCl. Resistances of both electrodes were kept between 0.7–1.5 MΩ. The elicited currents were filtered at 1 kHz and sampled at 500 Hz using a four-pole low-pass Bessel filter. Leak subtraction was performed using a-P/4 protocol. KV1.1-KV1.6 and Shaker IR currents were evoked by 500 ms depolarizations to 0 mV followed by a 500 ms pulse to -50 mV, from a holding potential of -90 mV. In order to investigate the current-voltage relationship, current traces were evoked by 10 mV depolarization steps from a holding potential of -90 mV. All data represent at least 3 independent experiments (n ≥ 3) and are presented as mean ± standard error.

A further data set relates to C57/ Bl/6 mice. Conditions: literature value for comparison; cited from earlier work. How it is done:
We injected increasing doses, from 0.8 to 25 ng, of Kbot21 to two sets of C57bL/6 mice containing each six individuals by i.c.v. The LD50 value corresponds to […] or 1μg/kg body weight which is 5 times to other LD50 values of some scorpion peptides, such as Maurotoxin, well characterized for their activity on potassium channels (LD50 = 100 ng).

Where a SMILES comes first, the peptide text is derived from it. Bridges are numbered along the chain shown (N, C = ends).

T1 sequence (P17659 whole entry): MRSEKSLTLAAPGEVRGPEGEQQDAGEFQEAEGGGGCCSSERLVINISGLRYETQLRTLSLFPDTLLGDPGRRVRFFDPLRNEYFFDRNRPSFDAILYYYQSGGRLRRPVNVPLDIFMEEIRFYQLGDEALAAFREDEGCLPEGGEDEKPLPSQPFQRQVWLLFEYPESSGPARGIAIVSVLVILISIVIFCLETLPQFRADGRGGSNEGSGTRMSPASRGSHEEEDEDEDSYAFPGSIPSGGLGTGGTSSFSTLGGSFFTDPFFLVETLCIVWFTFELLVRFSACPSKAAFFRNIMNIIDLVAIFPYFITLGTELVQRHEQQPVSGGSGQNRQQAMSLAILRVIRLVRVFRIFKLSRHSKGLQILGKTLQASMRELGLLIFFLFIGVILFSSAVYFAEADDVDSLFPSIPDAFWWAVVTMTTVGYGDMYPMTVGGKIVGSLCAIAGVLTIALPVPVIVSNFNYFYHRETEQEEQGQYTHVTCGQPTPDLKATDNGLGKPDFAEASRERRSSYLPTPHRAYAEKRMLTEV

One may read the Hill coefficient as the slope factor of the fitted curve. For the compound `CC[C@H](C)[C@@H]1NC(=O)[C@@H]2CSSC[C@H](NC(=O)[C@H](C)NC(=O)[C@H](C)N)C(=O)N[C@@H](Cc3ccc(O)cc3)C(=O)N[C@@H](CO)C(=O)N[C@@H](CO)C(=O)N[C@@H](CC(=O)O)C(=O)N[C@H]3CSSC[C@H](NC(=O)[C@H](CCCCN)NC(=O)[C@H](CO)NC(=O)[C@H](CC(=O)O)NC1=O)C(=O)N[C@@H](CCCCN)C(=O)N[C@H](C(=O)N[C@@H](Cc1ccc(O)cc1)C(=O)N[C@@H](CCCCN)C(=O)O)CSSC[C@H](NC(=O)[C@H](CCCCN)NC(=O)[C@H](C(C)C)NC(=O)[C@H](CCCNC(=N)N)NC3=O)C(=O)N[C@@H](CCCNC(=N)N)C(=O)N[C@@H](C)C(=O)N[C@@H](CCSC)C(=O)NCC(=O)N[C@@H](Cc1ccccc1)C(=O)N[C@@H](CO)C(=O)N[C@@H](CO)C(=O)NCC(=O)N[C@@H](CCCCN)C(=O)N2` [Kbot21] (H-AACYSSDCRVKCRAMGFSSGKCIDSKCKCYK-OH; disulfide 3-22, 8-27, 12-29 (inferred); N-terminus and C-terminus assumed), the “Inhibition of potassium current” value with rKV2.1 is reported as “failed to exert any activity”; in the data set on rKV1.1, “completely inhibited”; in the data set with rKV1.2 it was “completely inhibited”; with hKV1.3 it was “completely inhibited”; with rKV1.4, “failed to exert any activity”; at rKV1.6 (1 μM toxin, Xenopus oocytes, TEVC, n ≥ 3), “completely inhibited”. Besides, in the data set on Shaker IR, the “Inhibition of Shaker IR current” value is recorded as 65%. In addition, the “Reversibility of Kv1.6 block upon washout” value at rKV1.6 (500 nM toxin, current recovered quickly and completely upon washout, n = 3) is reported as “reversible”. On rKV1.6 (after application of 100 nM Kbot21, control 8.5 ± 0.9 mV, n ≥ 3, mean ± standard error, SEM), the “V1/2 (midpoint of activation)” value came out at 6.9 ± 2.9 mV. The compound also returned a Hill coefficient on rKV1.6 (concentration-response curve on Kv1.6, mean ± standard error, n ≥ 3, SEM) of 1.1 ± 0.1.
With “Maurotoxin: scorpion peptide well characterized for activity on potassium channels (VSCTGSKDCYAPCRKQTGCPNAKCINKSCKCYGC; UniProt P80719 1-34, looked up)”, the LD50 in the data set with C57/ Bl/6 mice is 100 ng.
